What was measured:
[1] = molecular target: T1, contractions induced by histamine on a guinea pig ileum (Cavia porcellus, UniProt P31389); test: In vitro antihistamine activity: inhibition of histamine-induced contractions of guinea pig ileum; assay type: cell-based; conditions: for Kb: competitive antagonism of histamine, read-out: pA2 (converted); for IC50: histamine 10^-8 g/l
T1 construct: on a guinea pig ileum; from tissue; host or cells: isolated guinea pig ileum
Method: The antagonist is administered at the same time as the agonist or before. In the latter case, the time of contact between the antagonist and the organ isolated before the introduction of the agonist is shown in Table III.

[2] = test system: cutaneous reactions induced by serotonin; test: Cutaneous reactions induced by serotonin; assay type: in vivo, rats; conditions: oral, rat
Method: (§1) The products of this invention were administered orally to rats in the model of the cutaneous reactions. These reactions were induced by intradermal administration of histamine, serotonin, or the 48/80 compound. The activity of these products is expressed as the percentage of reduction in the amount of blue dye having diffused at the injection point, and the obtained values for ED50 expressed in mg/kg are given in Table VI.

[3] = test system: bronchospasm induced by a 0.3% histamine aerosol; test: In vivo antihistamine activity: bronchospasm induced by histamine aerosol in awake guinea pig; conditions: 10 mg/kg oral in Tween
Method: The in vivo antihistamine activity is determined in the awake guinea pig by testing the bronchospasm induced by a 0.3% histamine aerosol. The antihistaminic activity of the present products is tested upon their oral administration in Tween.

[4] = Intraperitoneal toxicity (mortality, LD50); conditions: mouse, in vivo, ip; for mortality: read-out: percentage of mortality; for LD50: Bliss method
Method: (§2) The mortality induced by these substances was determined by using Swiss mice which were free of specific pathogenic organisms. The animals were kept in an air conditioned room for 24 to 48 hours prior to the beginning of the experiments. The substances were solubilized in Tween and administered either intragastrically or intraperitoneally.

[5] = test system: cutaneous reactions induced by histamine; test: Cutaneous reactions induced by histamine; assay type: in vivo, rats; conditions: oral, rat
Method: as §1

[6] = test system: contractions induced by serotonin on an isolated guinea pig ileum; test: In vitro antiserotonin activity: inhibition of serotonin-induced contractions of isolated guinea pig ileum; assay type: cell-based; conditions: Cavia porcellus, serotonin 5.10^-7 g/ml
motility = test: Effect on motility in mice (actimeter), sedative; assay type: in vivo; conditions: Mus musculus, oral, read-out: ED50 as a sedative (motility)
Method: (§3) When administered orally to spontaneously hypertensive rats at a rate of 50 mg/kg every 12 hours for five days, COR 34 41 causes a drop in the AP. The AP becomes stable at the end of the treatment, at a value of about 18 mm Hg below its initial value. The effect on motility when giving the present substances orally to mice, was tested by using an actimeter.

[7] = test system: cutaneous passive anaphylaxis; test: Antiallergic activity: cutaneous passive anaphylaxis; assay type: in vivo, Sprague Dawley rats; conditions: po; per os, rat, reduction of Evans blue diffused
Method: The antiallergic activity has been determined in Sprague Dawley rats by the test for cutaneous passive anaphylaxis. Anaphylaxis is induced by the intradermal administration of a serum rich in IgE, followed 24 hours later by the intravenous injection of a solution containing ovalbumin and Evans blue. The activity of the products to be tested, administered per os, is estimated as the percentage of reduction in the amount of Evans blue having diffused at the injection point. Table VI provides the ED50 expressed in mg/kg of certain products of this invention.

[8] = Oral toxicity (mortality), intragastric administration; conditions: mouse, in vivo, read-out: percentage of mortality
Method: as §2

[9] = test system: cutaneous reactions induced by the 48/80 compound; test: Cutaneous reactions induced by 48/80 compound; assay type: in vivo, rats; conditions: oral, rat
Method: as §1

[10] = test system: spontaneously hypertensive awake rat; test: Antihypertensive activity in spontaneously hypertensive awake rat, oral; assay type: in vivo
Method: In the spontaneously hypertensive awake rat the compound COR 34 41 causes a drop in AP of 18.8% at 25 mg/kg per os, and it causes a drop in AP of 19.3% at 50 mg/kg. The AP returns to normal at the end of an hour, at a dosage of 25 mg/kg, and at the end of 5 hours with a dosage of 50 mg/kg.
The compound COR 34 42 causes a AP drop of 15.6% at a dose of 50 mg/kg per os. The AP returns to normal at the end of 5 hours.

Swiss mice = conditions: 14 days of observation; 20 wt. % "Tween" solution; range of lethal doses 946-1459; cited from earlier work
[11] = test system: spontaneously hypertensive rats; test: Antihypertensive activity in spontaneously hypertensive rats, repeated oral administration; assay type: in vivo, rat; conditions: 50 mg/kg orally every 12 hours for five days
Method: as §3

[12] = no time of contact printed (antagonist given at the same time as agonist)

T1 sequence (P31389 whole entry): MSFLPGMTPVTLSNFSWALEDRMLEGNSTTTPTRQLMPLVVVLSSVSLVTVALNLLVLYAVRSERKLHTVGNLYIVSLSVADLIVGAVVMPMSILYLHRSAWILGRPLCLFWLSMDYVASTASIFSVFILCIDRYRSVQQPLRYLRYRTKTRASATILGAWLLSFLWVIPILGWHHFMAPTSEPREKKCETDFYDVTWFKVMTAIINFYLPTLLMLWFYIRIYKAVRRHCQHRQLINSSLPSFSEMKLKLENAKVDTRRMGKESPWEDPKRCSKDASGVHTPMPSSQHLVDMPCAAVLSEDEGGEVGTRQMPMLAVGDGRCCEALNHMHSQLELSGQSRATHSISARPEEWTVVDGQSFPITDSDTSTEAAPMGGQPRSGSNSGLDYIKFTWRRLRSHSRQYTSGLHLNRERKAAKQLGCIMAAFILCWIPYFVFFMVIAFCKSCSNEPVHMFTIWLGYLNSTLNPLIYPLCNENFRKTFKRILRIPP

Compound | Kb [1] | ED50 [2] | % of animals protected at 1 h [3] | % of animals protected at 6 h [3] | mortality ([4]; 500 mg/kg) | ED50 [5] | ED50 (motility) | ED50 [7] | mortality ([8]; 1000 mg/kg) | mortality ([8]; 2000 mg/kg) | ED50 [9] | mortality ([4]; 1000 mg/kg) | also measured
O=C1OC(Nc2ccccc2CCN2CCN(c3ccccc3)CC2)c2ccccc21 (stereo not drawn) [COR 34 30, 3-(2-(4-phenylpiperazinylethyl)anilino)-isobenzofuranone] | 20.4 nM | 13.2 mg/kg | 60% | 40% | 0% | 12.1 mg/kg | ~50 mg/kg | 3.8 mg/kg | 0% | 0% | 11.2 mg/kg | – | IC50 [1, 12]: 1040 nM; mortality ([4]; 100 mg/kg): 0%; mortality ([4]; 200 mg/kg): 10%; mortality ([4]; 300 mg/kg): 0%; IC50 ([6]; time of contact 5 mm): 9330 nM; mortality ([8]; 3000 mg/kg): 10%
COc1ccc(N2CCN(CCc3ccccc3NC3OC(=O)c4ccccc43)CC2)cc1 (stereo not drawn) [COR 34 53, 3-(2-(4-methoxyphenylpiperazinylethyl)anilino)isobenzofuranone] | – | – | – | – | 60% | – | – | – | 0% | 20% | – | 100% | IC50 ([1]; time of contact 5 mm): ~1500 nM; LD50 [4]: 500 mg/kg
COc1ccc2c(c1OC)C(=O)OC2Nc1ccccc1CCN1CCN(c2ccccc2C)CC1 (stereo not drawn) [COR 34 48] | – | – | 40% | 10% | 0% | – | 9 mg/kg | – | 0% | 0% | – | 0% | IC50 ([1]; time of contact 5 mm): 55 nM; IC50 ([6]; time of contact 5 mm): 6460 nM
CC(CN1c2ccccc2Sc2ccccc21)N(C)C (stereo not drawn) [Promethazine, reference compound] | – | – | – | – | – | – | – | – | – | – | – | – | IC50 ([6]; time of contact 3 mm): 444 nM
O=C1OC(Nc2ccccc2CCN2CCN(c3ccc(F)cc3)CC2)c2ccccc21 (stereo not drawn) [COR 34 37, 3-(2-(4-fluorophenylpiperazinylethyl)anilino)isobenzofuranone] | 13.8 nM | 7.9 mg/kg | 70% | 70% | 20% | 9.3 mg/kg | – | 6.4 mg/kg | 10% | 50% | 9.4 mg/kg | 60% | IC50 ([1]; time of contact 3 mm): 15.5 nM; IC50 ([6]; time of contact 5 mm): 22700 nM; mortality ([8]; 750 mg/kg): 0%
COc1ccc2c(c1OC)C(=O)OC2Nc1ccccc1CCN1CCN(c2ccc(Cl)cc2)CC1 (stereo not drawn) [COR 34 42, 3-(2-(4-p-chlorophenylpiperazinylethyl)-aniline)-6,7-dimethoxyisobenzofuranone] | – | – | – | – | – | – | 10 mg/kg | 14.8 mg/kg | 0% | 0% | – | – | IC50 ([1]; time of contact 5 mm): 33 nM; AP returns to normal at the end of ([10]; 50 mg/kg per os): 5 h; drop in AP ([10]; 50 mg/kg per os): 15.6%
COc1ccc2c(c1OC)C(=O)OC2Nc1ccccc1CCN1CCN(c2ccc(F)cc2)CC1 (stereo not drawn) [COR 34 43, 6,7-dimethoxy-3-(2-(4-p-fluorophenylpiperazinylethyl)-anilino)isobenzofuranone] | 10.7 nM | 17.1 mg/kg | 90% | 50% | 0% | 9.1 mg/kg | – | 6.6 mg/kg | 0% | 0% | 11.1 mg/kg | 0% | IC50 [1, 12]: 3530 nM; mortality ([4]; 800 mg/kg): 0%; IC50 ([6]; time of contact 3 mm): 20500 nM
COc1ccc2c(c1OC)C(=O)OC2Nc1ccccc1CCN1CCN(c2ccccc2)CC1 (stereo not drawn) [COR 34 47, 6,7-dimethoxy-3-(2-(4-phenylpiperazinylethyl)anilino)isobenzofuranone] | – | – | 20% | 0% | 0% | – | – | – | 0% | 0% | – | 0% | IC50 ([1]; time of contact 3 mm): 29 nM; IC50 ([6]; time of contact 3 mm): 19700 nM
Cc1ccccc1N1CCN(CCc2ccccc2NC2OC(=O)c3ccccc32)CC1 (stereo not drawn) [COR 34 49, 3-(2-(4-(2-methylphenyl)piperazinylethyl)-aniline)isobenzofuranone] | – | – | 30% | 20% | 0% | – | 18 mg/kg | – | 0% | 0% | – | 20% | IC50 ([1]; time of contact 10 mm): 80 nM
Nc1ccccc1CCN1CCN(c2ccccc2)CC1 [product of Example 1, 2-(4-phenylpiperazinylethyl)aniline] | – | – | – | – | – | – | – | – | – | – | – | – | LD50 (Swiss mice): 1175 mg/kg
COc1ccccc1N1CCN(CCc2ccccc2NC2OC(=O)c3ccccc32)CC1 (stereo not drawn) [COR 34 41] | 9.33 nM | 14 mg/kg | 90% | 60% | 25% | 7.9 mg/kg | – | 4.1 mg/kg | 10% | 10% | 10.9 mg/kg | 70% | IC50 ([1]; time of contact 10 mm): 31.1 nM; mortality ([4]; 400 mg/kg): 0%; mortality ([4]; 800 mg/kg): 35%; mortality ([4]; 900 mg/kg): 50%; LD50 [4]: 873 mg/kg; AP below its initial value at the end of the treatment [11]: about 18 mm Hg; AP returns to normal at the end of ([10]; 25 mg/kg per os): an hour; drop in AP ([10]; 25 mg/kg per os): 18.8%; AP returns to normal at the end of ([10]; 50 mg/kg per os): 5 h; drop in AP ([10]; 50 mg/kg per os): 19.3%; IC50 ([6]; time of contact 15 mm): 12600 nM; mortality ([8]; 750 mg/kg): 0%
